According to patent US20250213594A1 (priority 2023, published 2025):

Experiments:
[1] = 1 mg finasteride tablets, previous clinical studies; cited from earlier work
[2] = set-up: species or system human; settings: model estimate
Experimental: PK and PD modeling were performed to determine the therapeutic dose in AGA. A two-compartment PK model using observed clinical study data was adopted. […] The effective dose for additional clinical studies was estimated using established PK/PD models. All PK/PD modeling and simulations were performed using Phoenix WinNonlin, v.8.3.

[3] = system: DHT; test: Phase 1 clinical study: plasma DHT as pharmacodynamic marker; format: in vivo, human
[4] = format: in vivo, human; settings: 1 mg QD oral 28 days, n = 10
Experimental: The study in the present disclosure was conducted in accordance with Therapeutic Goods Administration and Human Research Ethics Committee guidelines. The study was conducted at the Phase 1 Unit of Nucleus Network Pty Ltd in Brisbane, Australia from October 2021 to March 2022. The entire study was conducted in accordance with the provisions of the Declaration of Helsinki and Good Clinical Practice guidelines, and the protocol was registered at www.clinicaltrials.gov (NCT04945226; registration date: Jun. 30, 2021). Healthy men aged 18 to 55 years with a body mass index (BMI) of 18 to 32 kg/m^2 participated in this study. Potential subjects completed a signed informed consent form and were subjected to screening prior to the study. A total of 40 healthy, non-smoking adult men were included in the study across three cohorts (FIG. 1).
Each subject was followed up until day 43. In contrast, cohort 2 was divided into two groups.
Cohort 2 was divided into two groups. […]
The clinical status and vital signs of the subjects were evaluated before and after participation in the study to investigate adverse effects. Hematological parameters such as white blood cell, red blood cell, hemoglobin, hematocrit, and platelet counts were analyzed. Adverse effects (AEs) were recorded in terms of symptoms and signs, duration, intensity, relationship to study drug, action taken, outcome, and seriousness. […]

[5] = clinical; settings: male, human, in vivo, po
Experimental: (§1) A total of 40 non-smoking, healthy adult males were recruited for this study. Subjects who passed the screening process and were deemed eligible for the study were assigned to three groups. […] Each subject was followed up until day 43. In contrast, cohort 2 was divided into two groups. […] The subjects returned to the hospital according to a pre-determined schedule for 43 or 35 days and were assessed for tolerability, PK, and PD. […] In this study, the plasma drug concentration was analyzed on day 28 to investigate the comparative effect.
(§2) Whole blood was collected and centrifuged to obtain plasma. […] Maximum plasma concentration (Cmax), time to reach Cmax (Tmax), areas under the curve for 24 and 672 hours after dosing (AUC0-24, and AUC0-672), areas under the curve from time 0 to the last quantified concentration and to infinity (AUC0-t, and AUC0-inf), total plasma clearance, apparent total volume of distribution based on steady state or terminal phase, and elimination half-life were assessed.
(§3) PK analysis was based on a non-compartmental analysis approach and was performed in the PK population (patients who received at least one dose and had evaluable PK data). PK parameters were calculated using plasma concentrations and actual blood sampling times using Phoenix WinNonlin v. 8.3 (Certara, Princeton, NJ, USA) and summarized.

[6] = male, human, in vivo, po, 1 mg
Experimental: as §1, §2, §3

In the case of `CC(C)(C)NC(=O)[C@H]1CC[C@H]2[C@@H]3CC[C@H]4NC(=O)C=C[C@]4(C)[C@H]3CC[C@]12C` [Finasteride], the bioavailability [1] is given as “about 65%”, the “tvCL2 (clearance between central compartment and peripheral compartment)” value [2] is given as 18.9 L/h and the “tvCL (clearance from central compartment)” value [2] is given as 18.4 L/h. For the same compound, the “baseline-corrected median DHT values (%) at all time points” value ([3]; 1 mg oral QD 28 days) was −74.04 to 3.58%, the “effect on DHT” value ([3]; all concentrations of IVL3001, oral 1 mg tablets) was “inhibitory effect” and the COVID-19 [4] was 0 n (%). The half-life ([5]; 1 mg, mean elimination half-life (t1/2el)) was 6.4 h, the half-life ([5]; in vivo mean half-life) was about 6.4 h and the “mean elimination half-life (t1/2el)” value [6] was 6.9 h.
